SMILES strings stand for the structures. Values after ≈ are worked out from the molar mass of the structure shown.

Assay type in all cases: functional
One test deals with Alternaria alternata. Briefly: Antimicrobial activity against Alternaria alternata ATCC 66868 after 24 hr by broth dilution method. Conditions: ATCC 66868, 24 h.
A further test concerns Escherichia coli. Briefly: Antimicrobial activity against Escherichia coli ATCC 25922 after 24 hr by broth dilution method. The following applies: ATCC 25922, 24 h.
The next test has as its system Microsporum canis. In words: Antimicrobial activity against Arthroderma otae ATCC 11622 after 24 hr by broth dilution method. The following applies: ATCC 11622, 24 h.
The next test deals with Proteus mirabilis. In words: Antimicrobial activity against Proteus mirabilis ATCC 49565 after 24 hr by broth dilution method. The following applies: ATCC 49565, 24 h.
The subject of the next test is Staphylococcus hominis. Briefly: Antimicrobial activity against Staphylococcus hominis ATCC 27844 after 24 hr by broth dilution method. Conditions: ATCC 27844, 24 h.
Test [1] deals with Staphylococcus epidermidis. In words: Antimicrobial activity against Staphylococcus epidermidis ATCC 12228 after 24 hr by broth dilution method. The following applies: ATCC 12228, 24 h.
Another test has as its system Aspergillus awamori. In words: Antimicrobial activity against Aspergillus awamori ATCC 22342 after 24 hr by broth dilution method. The following applies: ATCC 22342, 24 h.
The subject of the next test is Proteus vulgaris. In words: Antimicrobial activity against Proteus vulgaris ATCC 13315 after 24 hr by broth dilution method. The following applies: ATCC 13315, 24 h.
The test system of the next test is Aspergillus niger. In words: Antimicrobial activity against Aspergillus niger ATCC 9142 after 24 hr by broth dilution method. Conditions: ATCC 9142, 24 h.
A further test relates to Pseudomonas aeruginosa. In words: Antimicrobial activity against Pseudomonas aeruginosa ATCC 10145 after 24 hr by broth dilution method. Conditions: ATCC 10145, 24 h.
The next test has as its system Bacillus spizizenii. Briefly: Antimicrobial activity against Bacillus subtilis subsp. spizizenii ATCC 6633 after 24 hr by broth dilution method. Conditions: ATCC 6633, 24 h.
A further test concerns Trichophyton longifusum. Briefly: Antimicrobial activity against Trichophyton longifusum ATCC 22397 after 24 hr by broth dilution method. The following applies: ATCC 22397, 24 h.
A further test relates to Aspergillus fumigatus. In words: Antimicrobial activity against Aspergillus fumigatus after 24 hr by broth dilution method.
The test system of a further test is Fusarium solani. In words: Antimicrobial activity against Fusarium solani ATCC 38136 after 24 hr by broth dilution method. Conditions: ATCC 38136, 24 h.
The subject of the next test is Trichoderma viride. In words: Antimicrobial activity against Hypocrea rufa ATCC 52440 after 24 hr by broth dilution method. Conditions: ATCC 52440, 24 h.
Another test concerns Aspergillus flavus. Briefly: Antimicrobial activity against Aspergillus flavus ATCC 15517 after 24 hr by broth dilution method. The following applies: ATCC 15517, 24 h.
For a further test, the system named is Candida albicans. Briefly: Antimicrobial activity against Candida albicans ATCC 10231 after 24 hr by broth dilution method. Conditions: ATCC 10231, 24 h.
Another test deals with Micrococcus luteus. Briefly: Antimicrobial activity against Micrococcus luteus ATCC 4698 after 24 hr by broth dilution method. Conditions: ATCC 4698, 24 h.
In a further test the test system is Klebsiella pneumoniae. In words: Antimicrobial activity against Klebsiella pneumoniae ATCC 13883 after 24 hr by broth dilution method. Conditions: ATCC 13883, 24 h.
For the next test, the system named is Staphylococcus aureus. Briefly: Antimicrobial activity against Staphylococcus aureus ATCC 25923 after 24 hr by broth dilution method. Conditions: ATCC 25923, 24 h.
A further test has as its system Bacillus pumilus. Briefly: Antimicrobial activity against Bacillus pumilus ATCC 14884 after 24 hr by broth dilution method. Conditions: ATCC 14884, 24 h.
The subject of another test is Bacillus cereus. Briefly: Antimicrobial activity against Bacillus cereus ATCC 11778 after 24 hr by broth dilution method. The following applies: ATCC 11778, 24 h.
The subject of a further test is Salmonella typhi. In words: Antimicrobial activity against Salmonella enterica subsp. enterica serovar Typhi ATCC 19430 after 24 hr by broth dilution method. The following applies: ATCC 19430, 24 h.
For the next test, the system named is Rhizoctonia solani. Briefly: Antimicrobial activity against Rhizoctonia solani ATCC 76131 after 24 hr by broth dilution method. The following applies: ATCC 76131, 24 h.

With `O=C1Nc2ccc(Cl)cc2/C1=N/N1C(=O)CSC1c1ccc(O)cc1` (stereo unspecified), the MIC in the test with Alternaria alternata came out at 9.37 µg/mL (≈ 25.1 µM); with Escherichia coli, 18.8 µg/mL (≈ 50.2 µM); against Microsporum canis, 9.37 µg/mL (≈ 25.1 µM); with Proteus mirabilis, 18.8 µg/mL (≈ 50.2 µM); in the test with Staphylococcus hominis, 9.37 µg/mL (≈ 25.1 µM); in test [1] it was 9.37 µg/mL (≈ 25.1 µM). The MIC came to 4.68 µg/mL (≈ 12.5 µM) against Aspergillus awamori; 9.37 µg/mL (≈ 25.1 µM) with Proteus vulgaris; 4.68 µg/mL (≈ 12.5 µM) in the test on Aspergillus niger; 9.37 µg/mL (≈ 25.1 µM) in the test with Pseudomonas aeruginosa; 18.8 µg/mL (≈ 50.2 µM) against Bacillus spizizenii; 4.68 µg/mL (≈ 12.5 µM) in the test with Trichophyton longifusum. Further, the MIC came out at 4.68 µg/mL (≈ 12.5 µM) in the test with Aspergillus fumigatus; 4.68 µg/mL (≈ 12.5 µM) in the test with Fusarium solani; 4.68 µg/mL (≈ 12.5 µM) against Trichoderma viride; 9.37 µg/mL (≈ 25.1 µM) with Aspergillus flavus; 4.68 µg/mL (≈ 12.5 µM) against Candida albicans; 18.8 µg/mL (≈ 50.2 µM) in the test on Micrococcus luteus. Besides, the minimal inhibitory concentration (MIC) in the test with Klebsiella pneumoniae was determined as 9.37 µg/mL (≈ 25.1 µM); against Staphylococcus aureus it was 18.8 µg/mL (≈ 50.2 µM); against Bacillus pumilus, 9.37 µg/mL (≈ 25.1 µM); against Bacillus cereus, 18.8 µg/mL (≈ 50.2 µM); against Salmonella typhi, 9.37 µg/mL (≈ 25.1 µM); against Rhizoctonia solani, 9.37 µg/mL (≈ 25.1 µM).

Regarding `O=C1Nc2ccc(Cl)cc2/C1=N/N1C(=O)CSC1c1ccccc1O` (stereo unspecified), the MIC against Alternaria alternata was found to be 75 µg/mL (≈ 201 µM); in the test on Escherichia coli it was 300 µg/mL (≈ 803 µM); in the test with Microsporum canis, 75 µg/mL (≈ 201 µM); in the test with Proteus mirabilis, 300 µg/mL (≈ 803 µM); in the test on Staphylococcus hominis, 150 µg/mL (≈ 401 µM); in [1], 300 µg/mL (≈ 803 µM). In addition, the MIC with Aspergillus awamori was found to be 150 µg/mL (≈ 401 µM); against Proteus vulgaris, 150 µg/mL (≈ 401 µM); in the test on Aspergillus niger, 150 µg/mL (≈ 401 µM); with Pseudomonas aeruginosa, 300 µg/mL (≈ 803 µM); with Bacillus spizizenii, 150 µg/mL (≈ 401 µM); against Trichophyton longifusum, 150 µg/mL (≈ 401 µM). Besides, the MIC against Aspergillus fumigatus was 150 µg/mL (≈ 401 µM); against Fusarium solani it was 150 µg/mL (≈ 401 µM); in the test on Trichoderma viride it was 150 µg/mL (≈ 401 µM); against Aspergillus flavus it was 75 µg/mL (≈ 201 µM); with Candida albicans, 75 µg/mL (≈ 201 µM); against Micrococcus luteus, 150 µg/mL (≈ 401 µM). For the same molecule, the MIC with Klebsiella pneumoniae came to 300 µg/mL (≈ 803 µM); with Staphylococcus aureus, 300 µg/mL (≈ 803 µM); in the test with Bacillus pumilus, 150 µg/mL (≈ 401 µM); against Bacillus cereus, 150 µg/mL (≈ 401 µM); against Salmonella typhi, 150 µg/mL (≈ 401 µM); in the test with Rhizoctonia solani it was 150 µg/mL (≈ 401 µM).

In the case of `COc1cccc(C2SCC(=O)N2/N=C2\C(=O)Nc3ccc(Cl)cc32)c1` (stereo unspecified), the minimal inhibitory concentration (MIC) with Alternaria alternata turned out to be 18.8 µg/mL (≈ 48.3 µM); against Escherichia coli, 75 µg/mL (≈ 193 µM); in the test on Microsporum canis it was 18.8 µg/mL (≈ 48.3 µM); in the test with Proteus mirabilis, 37.5 µg/mL (≈ 96.7 µM); in the test with Staphylococcus hominis, 37.5 µg/mL (≈ 96.7 µM); in test [1] it was 75 µg/mL (≈ 193 µM). Further, the MIC against Aspergillus awamori worked out at 37.5 µg/mL (≈ 96.7 µM); with Proteus vulgaris, 37.5 µg/mL (≈ 96.7 µM); with Aspergillus niger, 37.5 µg/mL (≈ 96.7 µM); against Pseudomonas aeruginosa, 75 µg/mL (≈ 193 µM); against Bacillus spizizenii, 75 µg/mL (≈ 193 µM); against Trichophyton longifusum, 37.5 µg/mL (≈ 96.7 µM). Besides, the MIC in the test with Aspergillus fumigatus worked out at 37.5 µg/mL (≈ 96.7 µM); with Fusarium solani, 18.8 µg/mL (≈ 48.3 µM); in the test on Trichoderma viride, 18.8 µg/mL (≈ 48.3 µM); with Aspergillus flavus, 18.8 µg/mL (≈ 48.3 µM); in the test on Candida albicans, 18.8 µg/mL (≈ 48.3 µM); in the test on Micrococcus luteus, 75 µg/mL (≈ 193 µM). Moreover, the MIC in the test on Klebsiella pneumoniae was found to be 37.5 µg/mL (≈ 96.7 µM); with Staphylococcus aureus it was 37.5 µg/mL (≈ 96.7 µM); in the test with Bacillus pumilus, 75 µg/mL (≈ 193 µM); against Bacillus cereus it was 75 µg/mL (≈ 193 µM); in the test with Salmonella typhi, 75 µg/mL (≈ 193 µM); against Rhizoctonia solani, 18.8 µg/mL (≈ 48.3 µM).

`COc1cccc(C2C(Cl)C(=O)N2/N=C2\C(=O)Nc3ccc(Cl)cc32)c1` (stereo unspecified): the minimum inhibitory concentration (MIC) against Alternaria alternata worked out at 18.8 µg/mL (≈ 48 µM); against Escherichia coli it was 75 µg/mL (≈ 192 µM); in the test with Microsporum canis, 37.5 µg/mL (≈ 96.1 µM); in the test with Proteus mirabilis, 75 µg/mL (≈ 192 µM); with Staphylococcus hominis, 75 µg/mL (≈ 192 µM); in [1] it was 37.5 µg/mL (≈ 96.1 µM). Also, the minimum inhibitory concentration (MIC) came out at 37.5 µg/mL (≈ 96.1 µM) in the test on Aspergillus awamori; 75 µg/mL (≈ 192 µM) against Proteus vulgaris; 37.5 µg/mL (≈ 96.1 µM) in the test with Aspergillus niger; 37.5 µg/mL (≈ 96.1 µM) in the test with Pseudomonas aeruginosa; 75 µg/mL (≈ 192 µM) against Bacillus spizizenii; 18.8 µg/mL (≈ 48 µM) with Trichophyton longifusum. In addition, the MIC against Aspergillus fumigatus was found to be 18.8 µg/mL (≈ 48 µM); in the test on Fusarium solani it was 37.5 µg/mL (≈ 96.1 µM); against Trichoderma viride, 37.5 µg/mL (≈ 96.1 µM); against Aspergillus flavus, 18.8 µg/mL (≈ 48 µM); in the test with Candida albicans, 18.8 µg/mL (≈ 48 µM); against Micrococcus luteus, 37.5 µg/mL (≈ 96.1 µM). Further, the minimal inhibitory concentration (MIC) was determined as 37.5 µg/mL (≈ 96.1 µM) in the test on Klebsiella pneumoniae; 75 µg/mL (≈ 192 µM) against Staphylococcus aureus; 75 µg/mL (≈ 192 µM) in the test on Bacillus pumilus; 37.5 µg/mL (≈ 96.1 µM) in the test with Bacillus cereus; 75 µg/mL (≈ 192 µM) with Salmonella typhi; 18.8 µg/mL (≈ 48 µM) against Rhizoctonia solani.

The values are drawn from ChEMBL document CHEMBL3046063, “Synthesis and antimicrobial activity of 5-chloroindoline-2,3-dione derivatives” (2012).
